Columns and labels:
PDVC57 tumors [1] = experiment: Intratumoral CPT retention (CPT recovered from tumors); format: in vivo, C57BL/6J mice; details: 240 h (10 days) after intratumoral injection, 0.25 mg CPT
Experimental: (§1) All animal procedures were conducted in accordance with Yale Institutional Animal Care and Use Committee guidelines. Mice were housed in the Yale Animal Resource Center and afforded free access to food and water. Wild-type C57BL/6J mice were obtained from The Jackson Laboratory. To prepare the animals for tumor transplantation, the dorsal right flank was shaved using electric clippers. PDVC57 cells were harvested, washed, and resuspended in 1×PBS on ice at a concentration of 5.0×10^7 cells per mL. Mice were then anesthetized in an induction chamber with […] in propylene glycol and the dorsal right flank injected intradermally/subcutaneously with 5.0×10^6 cells in 100 μl using a 27-gauge syringe, forming a small bleb at the site of injection.
When tumors reached a diameter of about 5 mm, they were treated with either free CPT (0.25 mg of CPT/50 μL of intralipid), NNP-CPT (0.25 mg of CPT/50 μL of PBS), or BNP-CPT (0.25 mg of CPT/50 μL of PBS). Following injection, tumors were harvested and lyophilized at 0, 48, and 240 h. […] The homogenate was centrifuged at 10,000×g for 5 min to pellet residual tumor and debris, the supernatant removed, and CPT quantified using its intrinsic fluorescence as described above.

PDVC57 cells = experiment: Control cytotoxicity assay: solutions not aspirated before addition of cells; format: cell-based, murine
Experimental: After 48 hours, cell viability was assessed using Cell-Titer Glo. (8D) PDVC7 cells were harvested and seeded on a 96-well plate (5000 cells/well). […] FIG. 8B is a control for assay (8A) in which there is no poly-l-lysine attached to the plate.
A simulated, protein-rich tumor matrix was created by coating a 96 wellplate with 0.01% poly-l-lysine in 1×PBS. […] […] After 48 hours, cell viability was assessed using Cell-Titer Glo. PDVC7 cells were harvested and seeded on a 96-well plate (5000 cells/well). […] After 48 hours, cell viability was assessed using Cell-Titer Glo. A control for assay in which the poly-l-lysine coated plates are incubated with blank (unloaded) NP, free CPT, NNP-CPT or BNP-CPT, but these solutions are not aspirated before the addition of PDVC57 cells.

PDVC57 tumors [2] = experiment: In vivo assessment of CPT NP efficacy; details: single dose of 0.25 mg of CPT by intratumoral injection
Experimental: as §1
PDVC57 tumors were induced as described above. When tumors attained a diameter of approximately 5 mm, they were injected with either blank BNPs (1.99 mg/50 μL of PBS), IL-CPT (0.25 mg of CPT/50 μL), NNP-CPT (0.25 mg of CPT/50 μL of PBS), or BNP-CPT (0.25 mg of CPT/50 μL of PBS) using a 27-gauge needle, which was positioned in the center of the tumor. The entire treatment volume was administered intratumorally over 15 s. The needle was then held in this position for 10 s and withdrawn slowly in order to prevent leakage of drug from the injection site.

CC[C@@]1(O)C(=O)OCc2c1cc1n(c2=O)Cc2cc3ccccc3nc2-1 [free CPT, Camptothecin]
percentage of the injected CPT recovered from tumors (PDVC57 tumors [1]): undetectable | Killing of PDVC57 (viability) (PDVC57 cells): comparable killing | Systemic toxicity in pilot studies (PDVC57 tumors [2]): without clinical evidence of systemic toxicity

Reference: patent US20240423972A1, “CHEMOTHERAPEUTIC BIOADHESIVE PARTICLES WITH IMMUNOSTIMULATORY MOLECULES FOR CANCER TREATMENT” (priority 2021, published 2024)
